Test [1] has as its target T1, human CA-IX (Homo sapiens, UniProt Q16790).
T1 construct: purchased Acro CA9-H82E3
The test is described as follows: Surface Plasmon Resonance (SPR) binding kinetics to recombinant human CA-IX (Biacore 8K, single-cycle kinetics, 1:1 binding model). The procedure:
(§1) G1. Surface Plasmon Resonance Assay Conditions for hCA-IX and hCA-XII
(§2) Surface Plasmon Resonance (SPR) experiments were conducted on a Biacore 8K instrument (Cytiva, Marlborough, MA) to determine the binding kinetics of the compound to recombinant human CA-IX (Acro, CA9-H82E3) and CA-XII (Creative BioMart, CA12-261H) proteins. The ligands were diluted to 10 μg/mL in PBS-P+ buffer (20 mM phosphate buffer, pH 7.4, with 2.7 mM KCl, 137 mM NaCl, and 0.05% Tween 20) and captured on Series S Streptavidin Sensor Chips (Cytiva, 29699621) to 1200-1800 response units (RU) using a flow rate of 5 μL/min and injection times of 180 seconds for human CA-IX and 75 seconds for human CA-XII. Analyte binding was evaluated using a single-cycle kinetics method over 9 analyte concentrations (100-0.39 nM) in PBS-P+ buffer with 1% DMSO using a 50 μL/min. flow rate, 120 second association time, and 1200 second dissociation time. The flow cell temperature was set to 25° C. Analyte binding curves were fit to a 1:1 binding kinetic model in Biacore Insight Evaluation software (version 4.0.8.20368) following reference flow cell subtraction and DMSO correction to derive the association and dissociation binding constants.

Test [2] has as its target T2, human CA-XII (Homo sapiens, UniProt O43570).
T2 construct: purchased Creative BioMart CA12-261H
Put plainly: Surface Plasmon Resonance (SPR) binding kinetics to recombinant human CA-XII (Biacore 8K, single-cycle kinetics, 1:1 binding model). The procedure:
as §1, §2
On the technique in general: In SPR one partner is held on a chip, and binding of the other changes the refractive index at the surface.

[3] abbreviates: Chelated Metal: Lu-175; SPR, 25° C., pH 7.4; read-out: CAIX KD.
The mark [4] stands for this setting: Chelated Metal: Lu-175, 25° C., pH 7.4, read-out: CAXII KD.

Read-outs that look alike come from different tables or passages of the source. Bounds are passed on as bounds.

T2 sequence (O43570 25-354): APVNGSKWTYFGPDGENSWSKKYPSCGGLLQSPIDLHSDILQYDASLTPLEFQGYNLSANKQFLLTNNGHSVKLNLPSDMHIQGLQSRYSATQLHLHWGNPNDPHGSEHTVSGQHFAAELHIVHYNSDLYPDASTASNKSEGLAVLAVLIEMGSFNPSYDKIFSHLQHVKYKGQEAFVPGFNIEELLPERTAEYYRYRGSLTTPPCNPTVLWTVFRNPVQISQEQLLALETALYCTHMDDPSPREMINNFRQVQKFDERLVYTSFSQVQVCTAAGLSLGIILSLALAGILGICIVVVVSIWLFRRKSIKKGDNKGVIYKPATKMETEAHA

For orientation: Kd means the equilibrium constant for the complex coming apart. In the case of `Cc1c(C(F)(F)F)n[nH]c1C(=O)N[C@@H](CC(=O)N[C@@H](CCC(=O)N1CCN(C(=O)CN2CCN(CC(=O)O)CCN(CC(=O)O)CCN(CC(=O)O)CC2)C[C@H]1C(=O)NCCn1cc(C23CCC(C(=O)Nc4nnc(S(N)(=O)=O)s4)(CC2)CC3)nn1)C(=O)O)C(=O)O.[Lu+3]` [Compound 109.49], the dissociation constant Kd in test [1] (setting [3]) and in test [2] (setting [4]) was below 1 nM in each case.
Take `CC(CCC(=O)N1CCC(C(=O)O)(C(=O)NCC(=O)N2CCN(C(=O)CN3CCN(CC(=O)O)CCN(CC(=O)O)CCN(CC(=O)O)CC3)C[C@@H]2C(=O)NCCn2cc(C34CC(C(=O)Nc5nnc(S(N)(=O)=O)s5)(C3)C4)nn2)CC1)(c1ccc(O)cc1)c1ccc(O)cc1.[Lu+3]` [Compound 107.4]: the dissociation constant (Kd) was 1 to 2.5 nM in test [1] (setting [3]) and above 10 nM in test [2] (setting [4]).
On to `CC(CCC(=O)N[C@@H](CC(=O)N[C@@H](CC(=O)N1CCN(C(=O)CCC(CCC(=O)N2CCN(C(=O)C[C@H](NC(=O)C[C@H](NC(=O)CCC(C)(c3ccc(O)cc3)c3ccc(O)cc3)C(=O)O)C(=O)O)[C@H](C(=O)NCCn3cc(C45CC(C(=O)Nc6nnc(S(N)(=O)=O)s6)(C4)C5)nn3)C2)NC(=O)CN2CCN(CC(=O)O)CCN(CC(=O)O)CCN(CC(=O)O)CC2)C[C@H]1C(=O)NCCn1cc(C23CC(C(=O)Nc4nnc(S(N)(=O)=O)s4)(C2)C3)nn1)C(=O)O)C(=O)O)(c1ccc(O)cc1)c1ccc(O)cc1` (stereo partly shown) [Compound 131.4], for which the equilibrium dissociation constant (Kd) in test [1] (Chelated Metal: None; SPR, 25° C., pH 7.4; read-out: CAIX KD) was below 1 nM; in test [2] (Chelated Metal: None, 25° C., pH 7.4, read-out: CAXII KD), below 1 nM. Besides, in test [1] (KD ratio CAXII/CAIX; Chelated Metal: None), the “Ratio (CAXII/CAIX)” value is given as “* (1 < * < 5)”.
As to `CC(CCC(=O)N[C@@H](CC(=O)N[C@@H](CC(=O)N[C@@H](CCCn1cc(C23CCC(C(=O)Nc4nnc(S(N)(=O)=O)s4)(CC2)C3)nn1)C(=O)NCCOCCOCCNC(=O)CN1CCN(CC(=O)O)CCN(CC(=O)O)CCN(CC(=O)O)CC1)C(=O)O)C(=O)O)(c1ccc(O)cc1)c1ccc(O)cc1.[Lu+3]` [Compound 100.5], the Kd in test [1] (setting [3]) and in test [2] (setting [4]) was below 1 nM each time.
Consider `CC(CCC(=O)N[C@@H](CCC(=O)N1CCN(C(=O)CN2CCN(CC(=O)O)CCN(CC(=O)O)CCN(CC(=O)O)CC2)C[C@@H]1C(=O)NCCn1cc(C23CC(C(=O)Nc4nnc(S(N)(=O)=O)s4)(C2)C3)nn1)C(=O)O)(c1ccc(O)cc1)c1ccc(O)cc1.[Lu+3]` [Compound 107.11], for which the Kd is below 1 nM in test [1] (setting [3]) and above 10 nM in test [2] (setting [4]).
The corresponding values for `CC(CCCC(=O)N1CCC(C#N)(C(=O)NCC(=O)N2CCN(C(=O)CN3CCN(CC(=O)O)CCN(CC(=O)O)CCN(CC(=O)O)CC3)C[C@@H]2C(=O)NCCn2cc(C34CC(C(=O)Nc5nnc(S(N)(=O)=O)s5)(C3)C4)nn2)CC1)(c1ccc(O)cc1)c1ccc(O)cc1.[Lu+3]` [Compound 107.31] are 1 to 2.5 nM and above 10 nM.
The corresponding values for `CC(CCNC(=O)N1CCC(C(N)=O)(C(=O)NCC(=O)N2CCN(C(=O)CN3CCN(CC(=O)O)CCN(CC(=O)O)CCN(CC(=O)O)CC3)C[C@H]2C(=O)NCCn2cc(C34CC(C(=O)Nc5nnc(S(N)(=O)=O)s5)(C3)C4)nn2)CC1)(c1ccc(O)cc1)c1ccc(O)cc1.[Lu+3]` [Compound 107.56] are 1 to 2.5 nM and above 10 nM.
On to `NS(=O)(=O)c1nnc(NC(=O)C23CC(c4cn(CCNC(=O)[C@@H]5CN(C(=O)CN6CCN(CC(=O)O)CCN(CC(=O)O)CCN(CC(=O)O)CC6)CCN5C(=O)C[C@H](NC(=O)C[C@H](NC(=O)c5ccc(S(F)(F)(F)(F)F)cc5)C(=O)O)C(=O)O)nn4)(C2)C3)s1.[Lu+3]` [Compound 109.16], for which the values for the dissociation constant (Kd) in test [1] (setting [3]) and in test [2] (setting [4]) were below 1 nM and 2.5 to 10 nM, respectively.
On to `CC(CCC(=O)N[C@@H](CC(=O)N[C@@H](CC(=O)N1CCN(C(=O)NCCOCCNC(=O)CN2CCN(CC(=O)O)CCN(CC(=O)O)CCN(CC(=O)O)CC2)C[C@@H]1CCCCn1cc(CCCC(=O)Nc2nnc(S(N)(=O)=O)s2)nn1)C(=O)O)C(=O)O)(c1ccc(O)cc1)c1ccc(O)cc1.[Lu+3]` [Compound 123], for which the equilibrium dissociation constant (Kd) in test [1] (read-out: CAIX KD; Chelated Metal: Lu-175; SPR, 25° C., pH 7.4) was 1 to 2.5 nM; in test [2] (read-out: CAXII KD, Chelated Metal: Lu-175, 25° C., pH 7.4), 2.5 to 10 nM.
With `CC(CCCC(=O)N1CCOC[C@H]1C(=O)N[C@@H](CC(=O)NC1(C(=O)NCCn2cc(C34CC(C(=O)Nc5nnc(S(N)(=O)=O)s5)(C3)C4)nn2)CCN(C(=O)CN2CCN(CC(=O)O)CCN(CC(=O)O)CCN(CC(=O)O)CC2)CC1)C(=O)O)(c1ccc(O)cc1)c1ccc(O)cc1.[Lu+3]` [Compound 117.3], the Kd in test [1] (setting [3]) was below 1 nM; in test [2] (setting [4]) it was above 10 nM.
The corresponding values for `NS(=O)(=O)c1nnc(NC(=O)C23CCC(c4cn(CCNC(=O)[C@@H]5CN(C(=O)CN6CCN(CC(=O)O)CCN(CC(=O)O)CCN(CC(=O)O)CC6)CCN5C(=O)CC[C@H](NC(=O)C[C@H](NC(=O)CCC56CCC(CC5)C6)C(=O)O)C(=O)O)nn4)(CC2)CC3)s1.[Lu+3]` [Compound 109.57] are below 1 nM and below 1 nM.
The corresponding values for `CC(CCCC(=O)N1CCC(C(N)=O)(C(=O)NCC(=O)N2CCN(C(=O)CC[C@H](C(=O)O)N3CCN(CC(=O)O)CCN(CC(=O)O)CCN(CC(=O)O)CC3)C[C@H]2C(=O)NCCn2cc(C34CC(C(=O)Nc5nnc(S(N)(=O)=O)s5)(C3)C4)nn2)CC1)(c1ccc(O)c(F)c1)c1ccc(O)c(F)c1.[Lu+3]` [Compound 127.8] are below 1 nM and above 10 nM.
With `CC(CCC(=O)N[C@@H](CC(=O)N[C@@H](CNC(=O)N1CCN(C(=O)CN2CCN(CC(=O)O)CCN(CC(=O)O)CCN(CC(=O)O)CC2)C[C@H]1C(=O)NCCn1cc(C23CC(C(=O)Nc4nnc(S(N)(=O)=O)s4)(C2)C3)nn1)C(=O)O)C(=O)O)(c1ccc(O)cc1)c1ccc(O)cc1.[Lu+3]` [Compound 107.55], the Kd was below 1 nM in test [1] (setting [3]) and 2.5 to 10 nM in test [2] (setting [4]).
For `NS(=O)(=O)c1nnc(NC(=O)C23CCC(c4cn(CCNC(=O)[C@@H]5CN(C(=O)CN6CCN(CC(=O)O)CCN(CC(=O)O)CCN(CC(=O)O)CC6)CCN5C(=O)CC[C@H](NC(=O)C[C@H](NC(=O)c5ccc(C6CC6)nc5)C(=O)O)C(=O)O)nn4)(CC2)CC3)s1.[Lu+3]` [Compound 109.56] the same measures were below 1 nM and 1 to 2.5 nM.
The corresponding values for `CC(CCC(=O)N1CCOC[C@H]1C(=O)N[C@@H](CC(=O)N1CCN(C(=O)CN2CCN(CC(=O)O)CCN(CC(=O)O)CCN(CC(=O)O)CC2)C[C@@H]1C(=O)NCCn1cc(C23CC(C(=O)Nc4nnc(S(N)(=O)=O)s4)(C2)C3)nn1)C(N)=O)(c1ccc(O)cc1)c1ccc(O)cc1.[Lu+3]` [Compound 107.19] are 1 to 2.5 nM and above 10 nM.
Turning to `CC(CCC(=O)N[C@@H](CC(=O)N[C@@H](CC(=O)N1CCN(C(=O)CC[C@H](C(=O)O)N2CCN(CC(=O)O)CCN(CC(=O)O)CCN(CC(=O)O)CC2)C[C@H]1C(=O)NCCn1cc(C23CC(C(=O)Nc4nnc(S(N)(=O)=O)s4)(C2)C3)nn1)C(=O)O)C(=O)O)(c1ccc(O)cc1)c1ccc(O)cc1.[Lu+3]` [Compound 127], the Kd is below 1 nM in test [1] (setting [3]) and above 10 nM in test [2] (setting [4]).
On to `NS(=O)(=O)c1nnc(NC(=O)C23CC(c4cn(CCNC(=O)[C@@H]5CN(C(=O)CN6CCN(CC(=O)O)CCN(CC(=O)O)CCN(CC(=O)O)CC6)CCN5C(=O)CNC(=O)C5(C(=O)O)CCN(C(=O)Cc6ccc7[nH]ncc7c6)CC5)nn4)(C2)C3)s1.[Lu+3]` [Compound 112.16], for which the dissociation constant (Kd) in test [1] (setting [3]) is 2.5 to 10 nM; in test [2] (setting [4]) it was above 10 nM.
The corresponding values for `NS(=O)(=O)c1nnc(NC(=O)C23CC(c4cn(CCNC(=O)[C@@H]5CN(C(=O)CN6CCN(CC(=O)O)CCN(CC(=O)O)CCN(CC(=O)O)CC6)CCN5C(=O)C[C@H](NC(=O)C[C@H](NC(=O)c5ccc(C6(C(F)(F)F)CC6)cn5)C(=O)O)C(=O)O)nn4)(C2)C3)s1.[Lu+3]` [Compound 109.25] are below 1 nM and 2.5 to 10 nM.
For `CC[C@H]1CN(CC(=O)O)[C@@H](CC)CN(CC(=O)N2CCN(C(=O)CNC(=O)C3(C(N)=O)CCN(C(=O)CCCC(C)(c4ccc(O)cc4)c4ccc(O)cc4)CC3)[C@H](C(=O)NCCn3cc(C45CC(C(=O)Nc6nnc(S(N)(=O)=O)s6)(C4)C5)nn3)C2)[C@@H](CC)CN(CC(=O)O)[C@@H](CC)CN1CC(=O)O.[Lu+3]` [Compound 128.1] the same measures were below 1 nM and above 10 nM.
The corresponding values for `Cc1cc(C(=O)Nc2nnc(S(N)(=O)=O)s2)ccc1-c1cn(CCNC(=O)C2(NC(=O)CNC(=O)C3(C(N)=O)CCN(C(=O)CCCC(C)(c4ccc(O)cc4)c4ccc(O)cc4)CC3)CCN(C(=O)CC[C@H](C(=O)O)N3CCN(CC(=O)O)CCN(CC(=O)O)CCN(CC(=O)O)CC3)CC2)nn1.[Lu+3]` [Compound 127.7] are below 1 nM and above 10 nM.
`NS(=O)(=O)c1nnc(NC(=O)C23CC(c4cn(CCNC(=O)[C@H]5CN(C(=O)CN6CCN(CC(=O)O)CCN(CC(=O)O)CCN(CC(=O)O)CC6)CCN5C(=O)[C@@H]5COCCN5C(=O)CCc5n[nH]c6ccccc56)nn4)(C2)C3)s1.[Lu+3]` [Compound 108.1]: the Kd in test [1] (setting [3]) was 2.5 to 10 nM; in test [2] (setting [4]), above 10 nM.

The values above are taken from patent publication US20260325685A1, “Radiopharmaceutical Compositions Targeting Carbonic Anhydrase IX and Uses Thereof” (RayzeBio, Inc., priority 2023, published 2026).
